Source: ChEMBL document CHEMBL3853276, “Alkaloids from Hippeastrum argentinum and Their Cholinesterase-Inhibitory Activities: An in Vitro and in Silico Study” (J Nat Prod, 2016)

Key:
Cholinesterase = Cholinesterase (Equus caballus, UniProt P81908); experiment: Inhibition of equine serum BuChE using ATCI as substrate preincubated for 30 mins followed by substrate addition measured after 5 mins by DTNB-based spectrophotometric analysis
Acetylcholinesterase = Acetylcholinesterase (Electrophorus electricus, UniProt O42275); experiment: Inhibition of electric eel AChE using ATCI as substrate preincubated for 30 mins followed by substrate addition measured after 5 mins by DTNB-based spectrophotometric analysis
Chain of Acetylcholinesterase (O42275 whole entry): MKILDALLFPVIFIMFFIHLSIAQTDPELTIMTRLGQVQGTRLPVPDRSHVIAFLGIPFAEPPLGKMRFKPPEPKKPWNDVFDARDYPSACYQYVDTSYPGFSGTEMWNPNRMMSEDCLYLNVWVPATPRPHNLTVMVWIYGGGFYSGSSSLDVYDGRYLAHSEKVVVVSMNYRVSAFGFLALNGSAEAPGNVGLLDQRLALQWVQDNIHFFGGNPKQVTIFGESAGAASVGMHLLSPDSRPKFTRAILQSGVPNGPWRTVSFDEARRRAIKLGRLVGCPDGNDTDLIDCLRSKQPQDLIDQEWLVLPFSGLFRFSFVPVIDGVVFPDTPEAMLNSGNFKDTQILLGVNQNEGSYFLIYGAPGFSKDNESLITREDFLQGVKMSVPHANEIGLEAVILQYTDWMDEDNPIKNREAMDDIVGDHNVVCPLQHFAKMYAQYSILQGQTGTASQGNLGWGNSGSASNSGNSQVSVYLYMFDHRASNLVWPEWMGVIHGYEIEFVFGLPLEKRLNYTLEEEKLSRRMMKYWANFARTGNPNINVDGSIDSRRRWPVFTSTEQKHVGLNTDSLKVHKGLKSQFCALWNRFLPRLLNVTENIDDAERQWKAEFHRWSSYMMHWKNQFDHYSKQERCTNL

[1] = Selectivity index, ratio of IC50 for electric eel AChE to IC50 for equine serum BuChE

Chain of Cholinesterase (P81908 whole entry): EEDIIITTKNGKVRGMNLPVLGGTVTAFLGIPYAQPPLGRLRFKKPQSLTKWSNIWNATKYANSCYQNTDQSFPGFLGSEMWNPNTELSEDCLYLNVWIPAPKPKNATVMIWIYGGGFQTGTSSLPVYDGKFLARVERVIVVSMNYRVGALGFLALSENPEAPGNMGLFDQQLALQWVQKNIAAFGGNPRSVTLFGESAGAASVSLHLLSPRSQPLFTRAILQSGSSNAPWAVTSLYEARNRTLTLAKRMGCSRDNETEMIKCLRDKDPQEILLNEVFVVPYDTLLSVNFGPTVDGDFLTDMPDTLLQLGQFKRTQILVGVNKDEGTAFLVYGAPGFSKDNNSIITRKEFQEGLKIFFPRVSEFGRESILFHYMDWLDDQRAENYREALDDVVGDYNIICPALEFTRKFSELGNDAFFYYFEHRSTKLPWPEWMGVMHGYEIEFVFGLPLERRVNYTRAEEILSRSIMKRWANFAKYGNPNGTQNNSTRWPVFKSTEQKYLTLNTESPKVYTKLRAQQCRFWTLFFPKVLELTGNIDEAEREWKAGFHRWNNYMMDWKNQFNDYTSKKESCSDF

With `CO[C@H]1[C@H]2C(=CC[C@@H]1O)[C@H]1CN2Cc2cc3c(cc21)OCO3` the IC50 (Cholinesterase) was > 200 µM and the IC50 (Acetylcholinesterase) was > 200 µM.

In the case of `CN1CC[C@@H]2C[C@H](O)[C@H]3OC(=O)c4c(cc5c(c4O)OCO5)[C@H]3[C@@H]21`, the Ratio IC50 [1] is reported as 1.69, the IC50 (Cholinesterase) is reported as 67.3 µM and the IC50 (Acetylcholinesterase) is reported as 114 µM.

In the case of `O[C@H]1C=C2[C@H]3CN(Cc4cc5c(cc43)OCO5)[C@H]2C[C@@H]1O`, the IC50 (Cholinesterase) is reported as > 200 µM and the IC50 (Acetylcholinesterase) is reported as > 200 µM.

For `O[C@H]1[C@H]2c3cc4c(cc3CN3CCC(=C[C@@H]1O)[C@H]23)OCO4` [LYCORINE], the IC50 (Cholinesterase) was > 200 µM.

With `CO[C@H]1C=C2[C@H]3C[N@@](Cc4cc5c(cc43)OCO5)[C@H]2C[C@@H]1O` [MONTANINE] the IC50 (Cholinesterase) was > 200 µM and the IC50 (Acetylcholinesterase) was > 200 µM.
